System: NCI-H1876 complex spheroid growth, % test/control
Assay: Anticancer human tumor NCI-H1876 cell line growth inhibition [Asc];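 note: compound exposure lasted 7 days starting three days after seeding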;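 for viability, T/C: 100% = DMSO vehicle control wells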
Details: for IC50: curve of first compound; for viability, T/C: stronger effect = lower value; active = viability on the fitted dose curve at most 10% of control; inactive = the rest
Description: Multicellular complex tumor spheroid response to apoptosis pathway targeting inhibitors Alrizomadlin, Pelcitoclax, and Dasminapant in combination with a variety of drugs and investigational agents in selected tumor cell lines
The MDM2 inhibitor alrizomadlin, the Bcl-2/Bcl-xL inhibitor pelcitoclax, and the IAPs inhibitor dasminapant were evaluated both individually and in combination with standard of care and investigational anticancer small molecules within a complex spheroid model of solid tumors. . Complex spheroids include a stromal component modeled by human endothelial cells (HUVEC) and fibroblasts modeled by human mesenchymal stem cells (MSCs). The concentration ranges selected for each drug and investigational agent were based upon clinically achievable concentrations if the clinical Cmax of the agent was known.
Compounds. The drugs and investigational agents: alrizomadlin (APG-115; NSC831270), pelcitoclax (APG-1252; NSC835773), dasminapant (APG-1387;NSC834197), TAK-243 (NSC785004), copanlisib (NSC809693), olaparib (NSC753686), talazoparib (NSC767125), cobimetinib (NSC 768068), eltanexor (KPT-8602, NSC 794443), abemaciclib (NSC 768073), sotorasib (NSC818433), adagrasib (NSC 831453), MRTX-1133 (NSC 836407), Iadademestat (ORY1001, NSC 806812), and RMC-4630 (NSC839698), were obtained from the NCI Developmental Therapeutics Program Chemical Repository. The FDA-approved anticancer drug set is available from the Developmental Therapeutics Program at https://dtp.cancer.gov/organization/dscb/obtaining/available plates.htm. […] The stock solutions were prepared in dimethyl sulfoxide (DMSO, Sigma-Aldrich, St. Louis, MO, cat. D2650) at 800-fold the tested concentration and stored at -70 degrees C prior to their use. All drugs and investigational agents were tested over a range starting from a high concentration at or near the clinical Cmax and decreasing in half-log increments. If the clinical Cmax for an agent had not been determined, the highest concentration tested was 10 microM.
The patient-derived cancer (PDC) cell lines include five colon adenocarcinomas: 186277-243-T-J2-PDC, 616215-338-R-J1-PDC, 439559-082-T-J2-PDC, 463943-066-T-J2-PDC, and 519858-162-T-J1-PDC; three pancreatic carcinomas: 323965-272-R-J2-PDC, 521955-158-R6-J3-PDC, and 521955-158-R2-J5-PDC; two uterine sarcomas: 327498-152-R-J2-PDC and 993429-296-R-J1-PDC; two rhabdomyosarcomas: 755483-174-R-J1-PDC and 772245-204-R-J1-PDC; two soft tissue sarcomas: 126254-015-R-J1-PDC and 494315-158-R-J1-PDC; two malignant fibrous histiocytomas: 317291-083-R-J1-PDC and 596521-263-R-J1-PDC; two breast carcinomas: 171881-019-R-J1-PDC and 885512-296-R-J2-PDC; and one ovarian carcinoma: 6556581-035-R-J-PDC were obtained from the NCI PDMR, (https://pdmr.cancer.gov). The established cell lines HSSY-2 synovial sarcoma (RRID:CVCL 8719), SYO-1 synovial sarcoma (RRID:CVCL_7146), MPNST malignant peripheral neural sheath tumor were obtained from the Sloan Kettering Institute. The following established cell lines were purchased from the American Type Culture Collection (ATCC, Manassas, VA), Sor the received from the NCI repository:, PANC-1 pancreatic carcinoma (CRL-1469, RRID:CVCL_0480), OVCAR-5 ovarian carcinoma (RRID:CVCL_1628), OVCAR-8 ovarian carcinoma (RRID:CVCL_1629), , MCF-7 breast carcinoma (CRL-12584, RRID:CVCL_0031), MDA-MB-231 breast carcinoma (CRL-12532, RRID:CVCL_0062), NCI-H1876 small cell lung carcinoma (CRL-5902, RRID:CVCL_1503), NCI-H510A small cell lung carcinoma (HTB-184, RRID:CVCL_1565), NCI-H1417 (CRL-5869, RRID:CVCL_1469), and NCI-H196 small cell lung carcinoma (CRL-5823, RRID:CVCL_1509). Dr. Peter Houghton (Greehey Children's Cancer Research Institute, University of Texas Health Science Center, San Antonio, TX) provided Rh-18 rhabdomyosarcoma (RRID:CVCL_1659). Pooled donor human umbilical vein endothelial cells (HUVEC, Lonza, cat. CC-2519) and human mesenchymal stem cells (hMSC, Lonza, cat. PT-2501) were purchased from Lonza (Walkersville, MD).
Cell Culture. […]

O=C(c1ccc(F)c(F)c1Nc1ccc(I)cc1F)N1CC(O)([C@@H]2CCCCN2)C1 + CCN1C(C(=O)NC23CCC(C(=O)O)(CC2)CC3)C(c2cccc(Cl)c2F)C2(C(=O)Nc3cc(Cl)ccc32)C12CCCCC2
> 1000 nM: IC50 (second compound 0.00949 µM) | IC50 (second compound 0.03 µM) | IC50 (second compound 0.0949 µM) | IC50 (second compound 0.3 µM) | IC50 (second compound 0.949 µM) | IC50 (second compound 3 µM)
inactive: viability, T/C (second compound 0.00949 µM, first compound 0.00316 µM) 102% | viability, T/C (second compound 0.00949 µM, first compound 0.01 µM) 90.7% | viability, T/C (second compound 0.00949 µM, first compound 0.0316 µM) 104% | viability, T/C (second compound 0.00949 µM, first compound 0.1 µM) 95.7% | viability, T/C (second compound 0.00949 µM, first compound 0.316 µM) 93.4% | viability, T/C (second compound 0.00949 µM, first compound 1 µM) 87.7% | viability, T/C (second compound 0.03 µM, first compound 0.00316 µM) 100% | viability, T/C (second compound 0.03 µM, first compound 0.01 µM) 98.5% | viability, T/C (second compound 0.03 µM, first compound 0.0316 µM) 95.5% | viability, T/C (second compound 0.03 µM, first compound 0.1 µM) 95.1% | viability, T/C (second compound 0.03 µM, first compound 0.316 µM) 89.5% | viability, T/C (second compound 0.03 µM, first compound 1 µM) 82.3% | viability, T/C (second compound 0.0949 µM, first compound 0.00316 µM) 104% | viability, T/C (second compound 0.0949 µM, first compound 0.01 µM) 97.5% | viability, T/C (second compound 0.0949 µM, first compound 0.0316 µM) 88% | viability, T/C (second compound 0.0949 µM, first compound 0.1 µM) 102% | viability, T/C (second compound 0.0949 µM, first compound 0.316 µM) 85.8% | viability, T/C (second compound 0.0949 µM, first compound 1 µM) 79.2% | viability, T/C (second compound 0.3 µM, first compound 0.00316 µM) 99.9% | viability, T/C (second compound 0.3 µM, first compound 0.01 µM) 110% | viability, T/C (second compound 0.3 µM, first compound 0.0316 µM) 109% | viability, T/C (second compound 0.3 µM, first compound 0.1 µM) 101% | viability, T/C (second compound 0.3 µM, first compound 0.316 µM) 103% | viability, T/C (second compound 0.3 µM, first compound 1 µM) 83.7% | viability, T/C (second compound 0.949 µM, first compound 0.00316 µM) 110% | viability, T/C (second compound 0.949 µM, first compound 0.01 µM) 114% | viability, T/C (second compound 0.949 µM, first compound 0.0316 µM) 112% | viability, T/C (second compound 0.949 µM, first compound 0.1 µM) 109% | viability, T/C (second compound 0.949 µM, first compound 0.316 µM) 108% | viability, T/C (second compound 0.949 µM, first compound 1 µM) 77.4% | viability, T/C (second compound 3 µM, first compound 0.00316 µM) 103% | viability, T/C (second compound 3 µM, first compound 0.01 µM) 98.3% | viability, T/C (second compound 3 µM, first compound 0.0316 µM) 101% | viability, T/C (second compound 3 µM, first compound 0.1 µM) 99.1% | viability, T/C (second compound 3 µM, first compound 0.316 µM) 91.3% | viability, T/C (second compound 3 µM, first compound 1 µM) 77.4%

From PubChem BioAssay AID1963441 (Molecular Pharmacology Branch, DTP, NCI, 2024)
